In article PMC5923485 (Viruses, 2018):
Read-outs that look alike come from different tables or passages of the source.

Columns and labels:
[1] = tested on: S6 ribosomal protein (Ser235/236) phosphorylation and RVFV NP; assay type: cell-based, mouse
[2] = tested on: RVFV MP12 ∆NSs-Luc; assay: microbe, parasite or virus in culture; assay type: cell-based, Rift Valley fever virus; conditions: for inhibition at 100 µM: read-out: inhibition of RVFV MP12-luc
[3] = in vitro; conditions: mouse
[4] = tested on: RVFV MP12; assay type: cell-based, Rift Valley fever virus
[5] = tested on: H2.35 cells
[6] = tested on: RVFV; conditions: mouse, in vivo; cited from earlier work

SMILES	levels of RVFV NP [1]	phosphorylation of S6 ribosomal protein (Ser 235/236) [1]	inhibition at 100 µM ([2]; Rift Valley fever virus) [%]	CC50 [3] [µM]	effect on RVFV titers [4]	cell toxicity [5]	EC50 ([2]; read-out: EC50) [µM]	CC50 [5] [µM]	EC50 ([2]; Rift Valley fever virus, 18 h) [µM]	decrease in viability ([5]; mouse)	effect of increasing drug concentration on viral replication (luciferase) [2]	increase of infectious viral titer [4]	protection from RVFV induced pathogenesis [6]
C[S+]([O-])c1ccc(-c2nc(-c3ccncc3)c(-c3ccc(F)cc3)[nH]2)cc1 (centres unmarked) [SB203580]	minimal inhibition	minimal inhibition	45	> 100	minimal inhibition	no appreciable cell toxicity	–	–	–	–	–	–	–
CCc1cncnc1N1CCN(Cc2nc3ccc(C(F)(F)F)cc3[nH]2)CC1 [PF-4708671]	decreased	decreased phosphorylation	–	–	–	–	17	> 50	–	–	–	–	–
O=C(NOC[C@H](O)CO)c1ccc(F)c(F)c1Nc1ccc(I)cc1F [PD0325901]	minimal inhibition	minimal inhibition	52	> 100	minimal inhibition	–	–	–	> 50	~ 20%	–	–	–
CC(C)CCN1c2nc(Nc3cc(F)c(O)c(F)c3)ncc2N(C)C(=O)C1C (centres unmarked) [BI-D1870]	modestly increased	no apparent change	–	–	–	–	–	–	–	–	viral replication increased	approximately 0.5 log	–
CO[C@H]1C[C@@H]2CC[C@@H](C)[C@@](O)(O2)C(=O)C(=O)N2CCCC[C@H]2C(=O)O[C@H]([C@H](C)C[C@@H]2CC[C@@H](O)[C@H](OC)C2)CC(=O)[C@H](C)/C=C(\C)[C@@H](O)[C@@H](OC)C(=O)[C@H](C)C[C@H](C)/C=C/C=C/C=C/1C [Rapamycin]	markedly decreased	markedly decreased	–	> 100	–	–	–	–	18	–	–	–	protects mice
